ChEMBL document CHEMBL1201862, “PubChem BioAssay data set” (2004)
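96-well plates; 48 h exposure; 5 concentrations. Endpoints by linear interpolation between flanking doses. Not reached: highest tested concentration assigned. Abbreviation: GI50, concentration required for 50% inhibition of growth.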 The source made the active and inactive calls. No stated cut-off is given here; in the data, active = GI50 up to about 1.1 µM and inactive = higher.

Columns and labels:
Assay in all cases: NCI anticancer screen, dose series, 48 h
ACHN = test system: ACHN
HCT-116 = test system: HCT-116
HOP-62 = test system: HOP-62
NCI-H23 = test system: NCI-H23
NCI-H460 = test system: NCI-H460
OVCAR-4 = test system: OVCAR-4
SK-MEL-28 = test system: SK-MEL-28
SK-MEL-2 = test system: SK-MEL-2
SK-OV-3 = test system: SK-OV-3
SNB-78 = test system: SNB-78
SR = test system: SR
UACC-257 = test system: UACC-257
DLD-1 = test system: DLD-1
OVCAR-3 = test system: OVCAR-3
HCT-15 = test system: HCT-15
Hs-578T = test system: Hs-578T
MDA-MB-231 = test system: MDA-MB-231
MDA-MB-435 = test system: MDA-MB-435
NCI/ADR-RES = test system: NCI/ADR-RES
PC-3 = test system: PC-3

SMILES | GI50 (ACHN) | GI50 (HCT-116) | GI50 (HOP-62) | GI50 (NCI-H23) | GI50 (NCI-H460) | GI50 (OVCAR-4) | GI50 (SK-MEL-28) | GI50 (SK-MEL-2) | GI50 (SK-OV-3) | GI50 (SNB-78) | GI50 (SR) | GI50 (UACC-257) | GI50 (DLD-1) | GI50 (OVCAR-3) | GI50 (HCT-15) | GI50 (Hs-578T) | GI50 (MDA-MB-231) | GI50 (MDA-MB-435) | GI50 (NCI/ADR-RES) | GI50 (PC-3)
CC(C)(c1ccc(C=O)o1)c1ccc(C(C)(C)c2ccc(C=O)o2)o1 | > 100 µM (inactive) | > 100 µM (inactive) | > 100 µM (inactive) | > 100 µM (inactive) | > 100 µM (inactive) | > 100 µM (inactive) | > 100 µM (inactive) | > 100 µM (inactive) | > 100 µM (inactive) | > 100 µM (inactive) | > 100 µM (inactive) | > 100 µM (inactive) | – | – | – | – | – | – | – | –
CN(C)c1ccc(-c2nc(N)nc3c2CCCC3)cc1 | 26.4 µM (inactive) | 38.3 µM (inactive) | 99.1 µM (inactive) | 64.7 µM (inactive) | 65.2 µM (inactive) | – | 61.8 µM (inactive) | 56.8 µM (inactive) | > 100 µM (inactive) | 64.7 µM (inactive) | – | – | 54.5 µM (inactive) | 23.4 µM (inactive) | – | – | – | – | – | –
Cc1nc2c(O)c3c(c(O)c2nc1C)C1C=CC3CC1 | 11.2 µM (inactive) | 6.27 µM (inactive) | 19.6 µM (inactive) | 5.86 µM (inactive) | 30.3 µM (inactive) | 3.06 µM (inactive) | 16.4 µM (inactive) | 11.8 µM (inactive) | 22 µM (inactive) | – | 9.59 µM (inactive) | 7.24 µM (inactive) | – | 6.22 µM (inactive) | 17.1 µM | 32.1 µM (inactive) | 3.02 µM (inactive) | 3.04 µM (inactive) | 3.71 µM (inactive) | 9.35 µM (inactive)
CC1CC(c2cccc3c2OCO3)=Nc2ccccc2S1 (stereo not drawn) | > 100 µM (inactive) | – | – | > 100 µM (inactive) | > 100 µM (inactive) | > 100 µM (inactive) | > 100 µM (inactive) | > 100 µM (inactive) | > 100 µM (inactive) | > 100 µM (inactive) | – | > 100 µM (inactive) | > 100 µM (inactive) | > 100 µM (inactive) | > 100 µM | – | – | – | – | –
COC(=O)C1=C(OC(=O)/C=C/c2ccccc2)C(C(=O)OC)[C@@]2(O)[C@@H](C(=O)OC)[C@H](C)C[C@@H]1[C@@H]2C(=O)OC (stereo partly drawn) | 22.8 µM (inactive) | 24.1 µM (inactive) | 19 µM (inactive) | 17.3 µM (inactive) | 17 µM (inactive) | 18.2 µM (inactive) | 28.8 µM (inactive) | 24.9 µM (inactive) | 21.4 µM (inactive) | – | > 100 µM (inactive) | 20.1 µM (inactive) | – | 19.9 µM (inactive) | 11.7 µM | 14.7 µM (inactive) | 14.8 µM (inactive) | 15.6 µM (inactive) | 16.7 µM (inactive) | 25.5 µM (inactive)
C(/Cc1ccc2c(c1)OCO2)=N\N=C1NCCN1 | > 100 µM (inactive) | 58.9 µM (inactive) | 56.1 µM (inactive) | > 100 µM (inactive) | 47.8 µM (inactive) | > 100 µM (inactive) | > 100 µM (inactive) | > 100 µM (inactive) | 48.6 µM (inactive) | – | 73.5 µM (inactive) | > 100 µM (inactive) | – | > 100 µM (inactive) | > 100 µM | > 100 µM (inactive) | > 100 µM (inactive) | > 100 µM (inactive) | > 100 µM (inactive) | 71.3 µM (inactive)
CCCn1c(SCC)c2cc3cc4ccccc4cc3cc2c1-c1nc(F)nc(F)n1 | > 100 µM (inactive) | > 100 µM (inactive) | > 100 µM (inactive) | > 100 µM (inactive) | > 100 µM (inactive) | > 100 µM (inactive) | > 100 µM (inactive) | > 100 µM (inactive) | > 100 µM (inactive) | > 100 µM (inactive) | > 100 µM (inactive) | > 100 µM (inactive) | – | > 100 µM (inactive) | > 100 µM | – | – | – | – | –
